Laboratory results as given in US20250332442A1, “ORAL HYGIENE DEVICE AND SYSETM, AND USE METHOD” (CHANGSHA […] IN[…]., LTD., priority 2023, published 2025).

What was measured:
Type in all cases: cell-based
[1] = system: Porphyromonas gingivalis; assay: photodynamic sterilization with pure flat light guide needle device (Embodiment 8); conditions: red light beam 630 nm, irradiation 30 s, tail end of pure flat light guide needle
Source text: The device of Embodiment 8 and photosensitizer toluidine blue O are used in cooperation to carry out photodynamic sterilization of Porphyromonas gingivalis, and a red light beam with a wavelength of 630 nm is selected to irradiate for 30 s.

[2] = system: Porphyromonas gingivalis; assay: photodynamic sterilization experiment with constant-current source device (Embodiment 12); conditions: red light 630 nm and blue light 430 nm, irradiation 30 seconds, device of Embodiment 12
Source text: (§1) The device of Embodiment 12 and photosensitizer toluidine blue O are used in cooperation to carry out the photodynamic sterilization experiment on Porphyromonas gingivalis and Enterococcus faecalis. A red light beam with a wavelength of 630 nm and a blue light beam with a wavelength of 430 nm are used to irradiate for 30 seconds.

[3] = system: Enterococcus faecalis; assay: as above; conditions: red light 630 nm and blue light 430 nm, irradiation 30 seconds, device of Embodiment 12
Source text: as §1

[4] = system: Actinobacillus actinomycetemcomitans; assay: photodynamic sterilization with periodontal light guide needle device (Embodiment 4); conditions: red light beam 630 nm, irradiation 30 s, tip of periodontal light guide needle
Source text: The device of Embodiment 4 and photosensitizer toluidine blue O are used in cooperation to carry out photodynamic sterilization of Actinobacillus actinomycetemcomitans, and a red light beam with a wavelength of 630 nm is selected to irradiate for 30 s.

[5] = system: Enterococcus faecalis ATCC2921; assay: photodynamic sterilization experiment with root canal light guide needle device; conditions: red-light beam 630 nm, irradiation 30 s, tip of root canal light guide needle
Protocol: The photodynamic sterilization experiment on Enterococcus faecalis ATCC2921 is carried out using the device provided by the present disclosure and the photosensitizer toluidine blue O, and a red-light beam with a wavelength of 630 nm is selected to irradiate for 30 s.

Measured: sterilization efficiency

Cc1cc2nc3ccc(=[N+](C)C)cc-3sc2cc1N [toluidine blue O]
99%: all assays above
